Results published in patent publication US9744175B2, “Compositions of combinations of non-covalent DNA binding agents and anti-cancer and/or anti-inflammatory agents and their use in disease treatment” (INDUS PHARMACEUTICALS, INC., priority 2012, dated 2017).
pIC50: −log10 of the molar value. Where “and” joins values, the source holds several entries; their conditions need not be identical. Equal entries are not always repeated.

Legend:
[1] = Intravenous and oral pharmacokinetics in male Sprague-Dawley rats; format: in vivo, rat; details: for AUC0-inf / AUC0-t / Cmax / Tmax: rat blood; for AUC0-inf / AUC0-t / Cmax: mean ± SD; for Tmax: median; for T1/2: harmonic mean; for F (oral absolute bioavailability): oral 20 mg/kg vs IV 3 mg/kg, dose-normalised AUC0-inf; for clearance as share of normal liver blood flow in rat (55 mL/min/kg) / mean volume of distribution as multiple of total body water: intravenous administration
Method: Intravenous and oral pharmacokinetic studies are conducted on the novel non-covalent DNA binding agents, NSC 718813, NSC 723734 and NSC 726260, in male Sprague-Dawley rats. The studies are conducted in a parallel design with two groups of four male rats each for intravenous and oral administration of the test agents. The protocols for the studies are approved by the appropriate institutional animal care and use committee.
Groups of rats designated to receive oral doses of the novel non-covalent DNA binding agents of the invention molecules receive an oral dose of 20 mg/kg in a formulation vehicle comprised of N,N-dimethylacetamide (DMA), polyethylene glycol 400 (PEG400), ethanol, Cremophor EL and water (10:10:10:5:65 v/v). The dose volume for the oral doses of the test compounds is 8 mL/kg. Groups of rats are randomized to receive intravenous doses of agents. These rats receive a single intravenous bolus dose of 3 mg/kg of the test compound in a vehicle comprised of DMA:PEG400:ethanol:Cremophor EL:0.9% sodium chloride (saline) (10:10:10:5:65 v/v). The dose volume for intravenous doses of test agents is 1 mL/kg.
Predose blood samples are obtained from all rats from both, oral and intravenous dosing groups. For the intravenously dosed rats, blood samples (100 uL each) are obtained at 0.083, 0.25. 0.5, 1.0, 2.0, 4.0, 8.0, 12.0 and 24.0 hours post-dose. For the oral dose groups, the sampling times are identical to the intravenous dose group, except that the 0.083 hour sample is not collected. Following the collection of the blood samples, an equal volume of water is added to the blood sample to hemolyze the blood sample and the samples are stored frozen at −70° C. until bioanalysis.
Plasma samples are analyzed for the concentration of the test non-covalent DNA binding agents of the invention using an HPLC method with mass spectrometric (MS/MS) detection, following a liquid:liquid extraction of the plasma samples using a dichloromethane:ethyl acetate (20:80) mixture. To a 100 μL aliquot of sample, 50 μL of an internal standard (NSC 723732) is added. After mixing the internal standard wen, 2.5 mL of the extracting solvent (dichloromethane:ethyl acetate 20:80 v/v) is added. The mixture is vortexed for one minute and the samples are centrifuged at 3000 rpm for 3 minutes. Approximately 2 mL of the supernatant is taken from the centrifuged tubes and the sample is dried under a nitrogen stream at 50° C. The residue is reconstituted with 100 μL of the mobile phase and 20 μL is injected into the HPLC system for analysis. The mobile phase is comprised of milli-Q water:acetonitrile:formic acid (20:80:0.05) adjusted to pH 7.5 with ammonia.
The analysis of the test agent concentration is conducted by an HPLC method using a Shimadzu Prominence HPLC system and the eluent is analyzed using an API 4000 LC-MS/MS system (Applied Biosystems). The samples are analyzed on a HyPurity Advance, 50×4.6 mm, 5 u, Thermoelectron column. An injection volume of 20 μL is used for the analytical sample and the flow rate of the mobile phase is 0.6 mL/minute. Mass spectrometric analysis is conducted on the eluent using the API 4000 LC-MS/MS system and the mass parameters are analyzed for MRM transitions using NSC 723732 as the internal standard, in a positive ionization mode at a temperature of 400 C.

H1299 (p53−) = test: siRNA inhibition of MMR functions, alamar blue growth inhibition; format: cell-based, human; details: for Fold improvement in IC50, mlh1: mlh1 siRNA vs control; for Fold improvement in IC50, msh2: msh2 siRNA vs control; for pIC50: no siRNA knock out, read-out: IC50, Control
Method: (§1) siRNA specific for different genes is purchased from Dharmacon (Thermo. Fisher Scientific Dharmacon Products, Lafayette, Colo. 80026) and the protocol recommended by the supplier is utilized. Confluent cells are trypsinized and 5000 cells are seeded in a well in the presence or absence of siRNA in 100 μL medium. The cells are incubated with siRNA for two days. A non-covalent DNA binding agent of the invention is added in a 10 μL volume and incubated for another 48 hours. After treatment with the agent, the medium is replaced with 1% alamar blue containing medium to measure fluorescence after two hours.
as §1, with “from Dharmacon (Thermo Fisher Scientific” for “from Dharmacon (Thermo. Fisher Scientific”, “two hours. […] The results are presented in FIGS. 14-18 (SEQ ID NO:3-12, respectively) and Table 7.” for “two hours.”

[2] = test system: homologous recombination repair deficiencies; test: Synthetic lethality with homologous recombination repair deficiencies (FIG. 8); format: cell-based; details: FIG. 8 legend
[3] = test system: tumor cells that have K-RAS mutations and/or PTEN or mismatch repair gene deficiencies; test: Growth inhibition, summary of potency in text; format: cell-based, human; details: among the three compounds tested, tumor cell lines
Method: Three novel non-covalent DNA binding agents of the invention, NSC 718813, NSC 723734 and NSC 726260, are tested in five different EGFR-resistant, K-Ras mutant cancer cell lines. These cell lines represent colorectal (SW480, SW620 and HCT116) and breast cancer (MDA-MB-231 and […]).
The in vitro assays to evaluate the anticancer potential of non-covalent DNA binding agents were measured by using one or more of the assays described below.
Tumor cells are plated in 96 well plates at a density of 8,000 to 10,000 cells per well in 100 uL volume and grown overnight. On the second day, the cells are supplemented with medium containing an appropriate dilution of the compounds to be tested. The cells are treated with the test compounds for two more days and the growth medium was replaced with fresh medium containing 3% Alamar Blue, incubated for 2-3 hours and plates are read in a SpectraMax Gemini XS fluorescence plate reader (Molecular Devices).

yeast rad57 mutation = test: Alamar Blue cell survival assay in yeast cells; format: cell-based
Method: The cells are diluted 100-fold in yeast complete medium. 100 μL of diluted cells are seeded in 96 well plates with or without a non-covalent DNA binding compound and incubated for 24 hours at 30° C. The following day, an equal volume of yeast complete medium containing 1% alamar blue is added and incubated at 30° C. for two hours. Fluorescence intensity is measured in a fluorescent reader to calculate the inhibition effect of non-covalent DNA binding agents in mutant and wild type yeast cells.
Yeast cells that carry mutations in different genes involved in homologous recombination (rad 50, rad51, rad52, and rad57) and nucleotide excision/double strand repair (rad1) are grown to stationary culture overnight.

[4] = IV-bolus 3 mg/kg, rat, listed as NSC723734, 3 mg/kg

## COc1cc2c(cc1OCCCCCOc1cc3c(cc1OC)C(=O)N1CCC[C@H]1C(=O)N3)N=C[C@@H]1CCCN1C2=O [NSC 718813]
[1]; IV-bolus 3 mg/kg, rat
  Vdss: 1.5 ± 0.4 L/kg
  T1/2: 2.2 ± 0.4 h
[1]; IV-bolus 3 mg/kg
  AUC0-inf: 2424 ± 309 ng·h/mL
  AUC0-t: 2376 ± 304 ng·h/mL
  Cmax: 5723 ± 1005 ng/mL
  Tmax: 0.08 h
[1]; IV-bolus 3 mg/kg, rat, 3 mg/kg
  CLblood: approximately 20 mL/min/kg
[1]; IV-bolus 3 mg/kg, rat, listed as NSC 718813/1, 3 mg/kg
  CLblood: 20.0 ± 2.9 mL/min/kg
[1]; intravenous 3 mg/kg
  time with rat blood concentrations well above in vitro GI50 and/or TGI: at least 4 hours
[1]; rat
  F (oral absolute bioavailability): 2%
[1]; oral dose 20 mg/kg
  time with measurable blood levels post-dose: up to 8 hours
[1]; oral solution 20 mg/kg
  AUC0-inf: 345 ± 142 ng·h/mL
  AUC0-t: 303 ± 129 ng·h/mL
  Cmax: 112 ± 32 ng/mL
  Tmax: 0.5 h
[1]; oral solution 20 mg/kg, rat
  T1/2: 1.8 ± 0.6 h
[1]; rat, inferred from systemic clearance
  metabolic stability compared with naturally occurring antitumor antibiotic analogs: better metabolic stability
H1299 (p53−)
  Fold improvement in IC50, mlh1: 1.3 fold
  Fold improvement in IC50, msh2: 1.9 fold
  pIC50: 6.22

## COc1cc2c(cc1OCCCCN1CCN(CCCCOc3cc4c(cc3OC)C(=O)N3CCC[C@H]3C=N4)CC1)N=C[C@@H]1CCCN1C2=O [NSC 723734]
[1]; IV-bolus 3 mg/kg
  AUC0-inf: 4405 ng·h/mL
  AUC0-t: 4246 ± 311 ng·h/mL
  Cmax: 4053 ng/mL
  Tmax: 0.083 h
[1]; IV-bolus 3 mg/kg, rat
  T1/2: 6.3 h
[1]; IV-bolus 3 mg/kg, rat, 3 mg/kg
  CLblood: 11.4 ± 0.5 mL/min/kg
  Vdss: 3.2 ± 0.3 L/kg
[1]; [4]
  CLblood: 11 mL/min/kg
  Vdss: 3 L/kg
[1]; rat
  clearance as share of normal liver blood flow in rat (55 mL/min/kg): about 20%
  mean volume of distribution as multiple of total body water: about 4 times
  F (oral absolute bioavailability): 0.7%
[1]; rat, listed as NSC723734
  F (oral absolute bioavailability): approximately 1%
[1]; oral solution 20 mg/kg
  AUC0-inf: 216 ng·h/mL
  AUC0-t: 196 ± 93 ng·h/mL
  Cmax: 90.5 ± 56 ng/mL
  Tmax: 0.25 h
[1]; oral solution 20 mg/kg, listed as NSC723734
  Cmax: 91 ng/mL
[1]; oral solution 20 mg/kg, rat
  T1/2: 2.3 ± 0.7 h
H1299 (p53−)
  Fold improvement in IC50, mlh1: 2.0 fold
  Fold improvement in IC50, msh2: 2.6 fold
  pIC50: 6.05
[2]
  synthetic lethality with homologous recombination repair deficiencies: synthetic lethal

## COc1cc2c(cc1OCCCC(=O)Nc1ccc3ccc4cccc5ccc1c3c45)N=C[C@@H]1CCCN1C2=O [NSC 726260]
[3]
  pIC50: ~6.00
Yeast rad57 mutation
  pIC50: 6.52
[1]; IV-bolus 3 mg/kg, rat
  Vdss: 1.9 L/kg
  T1/2: 4.8 h
[1]; IV-bolus 3 mg/kg
  AUC0-inf: 5112 ng·h/mL
  AUC0-t: 5058 ± 874 ng·h/mL
  Cmax: 5587 ng/mL
  Tmax: 0.083 h
[1]; IV-bolus 3 mg/kg, rat, 3 mg/kg
  CLblood: 10.4 mL/min/kg and 10.4 ± 2.0 mL/min/kg
[1]; rat
  clearance as share of normal liver blood flow in rat (55 mL/min/kg): about 20%
  mean volume of distribution as multiple of total body water: about 3 times
[1]; oral solution 20 mg/kg
  AUC0-inf: 2536 ng·h/mL
  AUC0-t: 2474 ± 844 ng·h/mL
  Cmax: 438 ng/mL
  Tmax: 4.0 h
[1]; oral solution 20 mg/kg, rat
  T1/2: 4.6 ± 1.7 h
[2]
  synthetic lethality with homologous recombination repair deficiencies: synthetic lethal
